# From article PMC9894594, “Progressive Acceleration of Insulin Exposure Over 7 Days of Infusion Set Wear” (Diabetes Technology & Therapeutics, 2023)
# Assays:
# Type in all cases: in vivo, human (participants with type 1 diabetes mellitus)
# [1] = Insulin lispro pharmacokinetics after pump bolus during euglycemic clamp over 7 days of infusion set wear
# Description: (§1) We performed a prospectively enrolled randomized sequence two-way crossover study of the investigational CBX (Capillary Biomedical, Inc., Irvine, CA) and a commercial angled Teflon (MiniMed™ Silhouette™; Medtronic Diabetes Care, Northridge, CA; indicated for 3-day use) IIS for two weeklong home use periods with four in-patient euglycemic clamp sessions during each of the 7-day periods. Between the two periods, there was a wash out of 14 days (Supplementary Fig. S1).
# (§2) Euglycemic clamp experiments were performed at AMCR Institute (in Escondido, CA.) on days 0, 3, 5, and 7 in each treatment period (eight clamps per participant). Participants were admitted to AMCR the evening before the clamp study and glucose was stabilized overnight with intravenous (IV) insulin or glucose as needed. Personal pumps were set to 0.1 U/h overnight and throughout the clamp experiment. Once glucose was stable (95 ± 15 mg/dL) in the morning, IV insulin was stopped 20 min before administering a bolus of 0.15 U/kg of insulin lispro (Eli Lilly, Indianapolis, IN) by pump. Glucose was clamped at 95 ± 15 mg/dL for 300 min or terminated early if runaway hyperglycemia occurred.
# Per participant and clamp, 30 plasma samples were collected in regular intervals and stored at −70°C. Samples were analyzed elsewhere (Northern Lights Mercodia Lispro ELISA, Mercodia AB, Uppsala, Sweden; lowest limit of quantification (LLOQ) = 1.0 mU/L, 94% accuracy[7]). Owing to the small sample size and the intrinsically greater variability in pharmacodynamic measures, the PK results are the only results detailed in this report.
# (§3) PK parameters (area under the insulin concentration curve [AUC] over the first 60 or 300 min, respectively; time to maximum insulin concentration [tmax]; maximum insulin concentration [Cmax]; time to half-maximum insulin concentration, early and late [t50%], and mean residence time [MRT]) were tested for treatment effects. […] Estimated means were then back transformed and the ratio between treatments/days (equality means a ratio of 1) tested for significance using mixed model for repeated measures (two-sided, α = 0.05). For simplicity reasons, all data are presented as median (25th–75th percentiles) or mean ± standard deviation.
# [2] = Euglycemic clamp pharmacodynamics (glucose infusion rate) after insulin lispro pump bolus; parameters: t50% (GIR, early) (time to reach 50% GIRmax before peak) / t50% (GIR, late) (time to reach 50% GIRmax after peak): unit: min; details: 0.15 U/kg SC bolus by pump, euglycemic clamp 300 min, median (25th–75th)
# Description: as §1, §2, §3
# [3] = Adverse events during the crossover clamp study; details: both IIS types
# Description: as §1
# WCG IRB approved the protocol and all associated documents used by participants before initiation of the study (Study No. 1283383) and during the study were registered in clinicaltrials.gov (NCT04398030). Participants aged 18–70 years, diagnosed with type 1 diabetes mellitus, and using rapid-acting insulin analog delivered through a Medtronic MiniMed insulin pump (model 530 or higher; Medtronic Diabetes Care) for at least 6 months were enrolled.
# [4] = day 7 of IIS wear, Control IIS, 0.15 U/kg SC bolus by pump, plasma ELISA, median (25th–75th), n = 5
# [5] = day 0 of IIS wear, CBX IIS, n = 6
# [6] = day 0 of IIS wear, Control IIS, n = 6
# [7] = day 3 of IIS wear, CBX IIS, n = 6
# [8] = day 3 of IIS wear, Control IIS, n = 6
# [9] = day 5 of IIS wear, CBX IIS, n = 6
# [10] = day 5 of IIS wear, Control IIS, n = 6
# [11] = day 7 of IIS wear, CBX IIS, n = 5
# [12] = day 7 of IIS wear, Control IIS, n = 5
substance,measurement,setting,value
insulin lispro,t50% (early) (time to reach 50% of Cmax before peak),[1]; [4],12.3 (11.5–16.4) min
same,t50% (late) (time to reach 50% of Cmax after peak),[1]; [4],63.5 (57.5–77.9) min
same,tmax (time to maximum insulin concentration),[1]; [4],25.0 (20.0–30.0) min
same,decline of AUC0–300 from days 0 to 7,"[1]; pooled data from both IIS groups, 0.15 U/kg bolus",~24%
same,AUC0–300(GIR) (area under the GIR curve from 0 to 300 min),[2]; [5],1205 (642.1–1219) mg/kg
same,GIRmax (maximum glucose infusion rate),[2]; [5],8.4 (4.5–9.1) mg/(kg·min)
same,Onset of action,[2]; [5],28.9 (21.4–39.0) min
same,"t50% (GIR, early) (time to reach 50% GIRmax before peak)",[2]; [5],48.7 (25.7–63.5)
same,"t50% (GIR, late) (time to reach 50% GIRmax after peak)",[2]; [5],187.4 (160.4–234.3)
same,tmax(GIR) (time to reach GIRmax),[2]; [5],140.0 (80.0–170.0) min
same,AUC0–300(GIR) (area under the GIR curve from 0 to 300 min),[2]; [6],1330 (790.6–1539) mg/kg
same,GIRmax (maximum glucose infusion rate),[2]; [6],10.2 (7.7–11.7) mg/(kg·min)
same,Onset of action,[2]; [6],76.1 (56.6–106.4) min
same,"t50% (GIR, early) (time to reach 50% GIRmax before peak)",[2]; [6],67.6 (43.0–93.5)
same,"t50% (GIR, late) (time to reach 50% GIRmax after peak)",[2]; [6],182.6 (164.3–247.3)
same,tmax(GIR) (time to reach GIRmax),[2]; [6],145.0 (90.0–190.0) min
same,AUC0–300(GIR) (area under the GIR curve from 0 to 300 min),[2]; [7],719.6 (652.3–864.3) mg/kg
same,GIRmax (maximum glucose infusion rate),[2]; [7],7.41 (5.7–9.5) mg/(kg·min)
same,Onset of action,[2]; [7],28.2 (12.1–34.0) min
same,"t50% (GIR, early) (time to reach 50% GIRmax before peak)",[2]; [7],49.0 (37.7–95.0)
same,"t50% (GIR, late) (time to reach 50% GIRmax after peak)",[2]; [7],157.6 (97.5–179.0)
same,tmax(GIR) (time to reach GIRmax),[2]; [7],65.00 (60.0–120.0) min
same,AUC0–300(GIR) (area under the GIR curve from 0 to 300 min),[2]; [8],743.1 (585.5–1268) mg/kg
same,GIRmax (maximum glucose infusion rate),[2]; [8],5.2 (5.0–13.5) mg/(kg·min)
same,Onset of action,[2]; [8],35.4 (29.0–41.4) min
same,"t50% (GIR, early) (time to reach 50% GIRmax before peak)",[2]; [8],51.3 (44.9–55.6)
same,"t50% (GIR, late) (time to reach 50% GIRmax after peak)",[2]; [8],147.8 (88.3–177.7)
same,tmax(GIR) (time to reach GIRmax),[2]; [8],82.0 (60.0–110.0) min
same,AUC0–300(GIR) (area under the GIR curve from 0 to 300 min),[2]; [9],663.5 (609.8–1332) mg/kg
same,GIRmax (maximum glucose infusion rate),[2]; [9],8.1 (6.5–10.9) mg/(kg·min)
same,Onset of action,[2]; [9],21.1 (18.4–23.8) min
same,"t50% (GIR, early) (time to reach 50% GIRmax before peak)",[2]; [9],33.3 (28.7–37.0)
same,"t50% (GIR, late) (time to reach 50% GIRmax after peak)",[2]; [9],92.6 (77.1–147.0)
same,tmax(GIR) (time to reach GIRmax),[2]; [9],62.5 (50.0–70.0) min
same,AUC0–300(GIR) (area under the GIR curve from 0 to 300 min),[2]; [10],695.2 (585.4–1395) mg/kg
same,GIRmax (maximum glucose infusion rate),[2]; [10],9.1 (7.3–10.8) mg/(kg·min)
same,Onset of action,[2]; [10],20.0 (16.4–23.0) min
same,"t50% (GIR, early) (time to reach 50% GIRmax before peak)",[2]; [10],38.8 (30.6–39.1)
same,"t50% (GIR, late) (time to reach 50% GIRmax after peak)",[2]; [10],106.8 (95.4–140.2)
same,tmax(GIR) (time to reach GIRmax),[2]; [10],59.0 (55.0–60.0) min
same,AUC0–300(GIR) (area under the GIR curve from 0 to 300 min),[2]; [11],883.0 (380.6–908.4) mg/kg
same,GIRmax (maximum glucose infusion rate),[2]; [11],10.1 (4.9–11.3) mg/(kg·min)
same,Onset of action,[2]; [11],18.8 (16.2–27.0) min
same,"t50% (GIR, early) (time to reach 50% GIRmax before peak)",[2]; [11],32.2 (28.0–36.0)
same,"t50% (GIR, late) (time to reach 50% GIRmax after peak)",[2]; [11],107.5 (105.9–117.8)
same,tmax(GIR) (time to reach GIRmax),[2]; [11],55.0 (50.0–55.0) min
same,AUC0–300(GIR) (area under the GIR curve from 0 to 300 min),[2]; [12],687.7 (386.7–1039) mg/kg
same,GIRmax (maximum glucose infusion rate),[2]; [12],9.2 (6.9–11.5) mg/(kg·min)
same,Onset of action,[2]; [12],27.5 (14.6–32.0) min
same,"t50% (GIR, early) (time to reach 50% GIRmax before peak)",[2]; [12],48.1 (23.2–48.1)
same,"t50% (GIR, late) (time to reach 50% GIRmax after peak)",[2]; [12],96.7 (87.1–109.5)
same,tmax(GIR) (time to reach GIRmax),[2]; [12],70.0 (60.0–70.0) min
same,severe or serious adverse events,[3],No severe or serious adverse events
